Experimental data taken from patent US20200282009A1, “METHODS OF TREATING DISEASES ASSOCIATED WITH VASCULAR SMOOTH MUSCLE CELL PROLIFERATION” (BioLineRx Ltd., priority 2017, published 2020).
[ ]: non-standard residue; d: D form. The star is where a group is joined. Benzoyl(4-F) = O=C(c1ccc(F)cc1)*; Cit = NC(=O)NCCC[C@H](N)C(=O)O

How the values were obtained:
SK-N-BE(2) cells = assay: Soft agar colony assay; type: cell-based, human; settings: BL-8040 20 μM or anti-CXCR4 1 μg/ml, 14 days
Method: (§1) An agar base layer was prepared as follows: 45 mL RPMI plus 12% FCS was mixed with 15 mL RPMI 32 plus 12% FCS and 15 mL 2.5% agar in double-distilled water. The tumor cells were suspended in RPMI plus 10% FCS. Cell suspension was mixed in a ratio of 1:3 with the agar base solution. This mixture was then plated on top of a preformed solid agar base. CXCL12 (100 ng/mL) or BL-8040 (20 μM) or anti-CXCR4 (1 μg/ml) were added to the mixture. Fourteen days later, the number of colonies was counted in 10 different fields.

Shy-SY5Y cells = assay: Soft agar colony assay; type: cell-based, human; settings: BL-8040 20 μM or anti-CXCR4 1 μg/ml, 14 days
Method: as §1

[1] = test system: miR-15a, miR-16-1, BCL-2, CCND1, c-myc in SK-N-BE(2) cells; assay: qPCR of treated cells in-vitro; type: cell-based, human; settings: 20 μM, 24 hours
Method: (§2) Total RNA from various cell lines and mouse tissues was isolated using Trizol reagent (Invitrogen) according to the manufacture's protocol, followed by DNaseI treatment using the DNaseI Kit where needed (Ambion). The concentrations were measured by Nanodrop (ND spectrophotometer) and the integrity was analyzed by gel electrophoreses on 1% agarose gel.
(§3) cDNA was synthesized from 0.5-1 μg total RNA using the Quanta Biosciences qScript™ cDNA Synthesis Kit (95047-100) for mRNA analysis, and using the qScript™ microRNA cDNA Synthesis Kit (95107-100) for miRNAs analysis. Quantiative PCR (qPCR) of miRNAs and mRNA was performed using the CFX384, C1000 touch thermal cycler (Bio-Rad) and a SYBR Green PCR Kit: Quanta Cat. #84018 and #84071, respectively. The fold expression and statistical significance were calculated using the 2-ΔΔ Ct method. All experiments were performed in triplicate.

[2] = test system: miR-15a, miR-16-1, BCL-2, CCND1, c-myc in Shy-SY5Y cells; assay: qPCR of treated cells in-vitro; type: cell-based, human; settings: 20 μM, 24 hours
Method: as §2, §3

[3] = test system: BCL-2, cycD1, pERK in SK-N-BE(2) cells; assay: Western blot analysis of treated cells; type: cell-based, human; settings: 20 μM, 24 hours
Method: SK-N-BE(2) cells were seeded into a 12-well plate at 2×10^5/1 ml of medium per well. The cells were incubated for 48 hours and supernatants were collected. For whole cells: tumor samples and cells were lysed by the addition of lysis buffer containing 50 mM Tris-HCl PH 7.6, 150 mM NaCl, 5 mM EDTA pH 8, 0.5% NP40 and protease inhibitor cocktail (Roche Diagnostics). Lysate was incubated with buffer for 15-20 minutes and then centrifuges at 14,000 rpm, 15 min, at 4° C. Protein amounts were determined by Bradford assay (Bio-Rad).
Protein extracts were equally loaded onto 10% SDS-polyacrylamide gel, electrophorized and transferred onto a polyvinylidenedifluoride (PVDF) membrane (Bio-Rad Laboratories). Then, membranes were blocked and incubated with primary specific antibody O.N. at 4° C. For BCL-2 mouse monoclonal (Abcam). For cycD1 rabbit monoclonal (Thermo). For pERK1/2 rabbit monoclonal (Cell signaling). For β-Actin mouse monoclonal (MP biomedicals). After the washing procedure (3 times, 10 min in washing solution), the membrane was incubated with a secondary immunopure HRP-conjugated antibody, anti-mouse or anti rabbit (Envision; Dako) (1/10,000), washed (5 times, 6 min) and detected with the EZ-ECL kit (Biological Industries). Photon emission was identified by ChemiDoc MP imaging system (Bio-Rad). Intensities of protein bands were quantified by computerized densitometry using Image lab software (Bio-Rad).

[4] = test system: SK-N-BE(2) orthotopic xenograft tumors; assay: In-vivo orthotopic NB model (tumor growth, weight, survival); set-up: species or system NSG mice
Method: Human SK-N-BE(2) cells were orthotopically injected into the left adrenal gland of 6-8 weeks old NSG mice. A 27-gauge needle was introduced through the left adrenal fat pad and 5×10∧5 cells/20 μl PBS were inoculated to the adrenal gland. NSG mice were maintained under defined flora conditions at the Hebrew University Pathogen-Free Animal Facility. Tumor growth and volume were monitored bi-weekly by using T2-weighted MRI until tumors reached the ethical limit volume and mice were randomized to drug-treated or control mice. Mice in the treated group were subjected to 2 treatment protocols. In the first treatment protocol BL-8040 (400 μg) was injected daily, starting three days following inoculation, and was continued for 35 days. In the second treatment protocol mice were monitored for 21 days. As of day 7, mice were treated with a daily injection of BL-8040 (400 μg) for 14 consecutive days.
Magnetic resonance imaging (MRI) scans were performed on a horizontal 4.7T Biospec spectrometer (Bruker Medical) with a 3.5-cm birdcage coil. Mice were anesthetized with Isoflurane (Nicholas Piramal, India; 2% in a mixture of 30:70 O2:N2O). Tumor volume was assessed bi-weekly using T2-weighted (T2W) fast spin echo images (repetition time=2,000 ms; echo time=37 ms; in plane resolution=117 μm; slice thickness-1 mm). Tumor volume was manually assessed using Analyze-7.0 (BIR). For each subject, an exponential growth curve was fitted to the tumor volume data points (Matlab software).
Data are presented as means±SD or ±SE. Statistical comparison of means was performed by a two-tailed unpaired Student's t test. Differences with a P<0.05 were determined as statistically significant. Statistical analysis of NB tumor mice survival following early treatment was performed using the Mantel-cox test.

CXCR4 receptor = CXCR4 receptor (Homo sapiens, UniProt P61073); settings: Peled et al. 2012; cited from earlier work
Sequence of CXCR4 receptor (P61073 whole entry): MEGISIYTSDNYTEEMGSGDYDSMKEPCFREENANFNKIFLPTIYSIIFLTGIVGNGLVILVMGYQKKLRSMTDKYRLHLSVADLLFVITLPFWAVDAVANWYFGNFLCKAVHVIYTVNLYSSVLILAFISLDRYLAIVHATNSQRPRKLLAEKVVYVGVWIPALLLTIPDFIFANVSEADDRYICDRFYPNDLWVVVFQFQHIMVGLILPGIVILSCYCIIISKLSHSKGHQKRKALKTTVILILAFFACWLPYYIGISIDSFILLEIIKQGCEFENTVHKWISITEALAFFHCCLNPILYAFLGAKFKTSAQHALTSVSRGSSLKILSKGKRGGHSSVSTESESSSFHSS

With “4F-benzoyl-Arg-Arg-Nal-Cys-Tyr-Cit-Lys-DLys-Pro-Tyr-Arg-Cit-Cys-Arg-NH2 ({Benzoyl(4-F)}-RR[Nal]CY[Cit]K[dK]PYR[Cit]CR-NH2; not fully specified; printed as 4F-benzoyl-Arg-Arg-Nal-Cys-Tyr-Cit-Lys-DLys-Pro-Tyr-Arg-Cit-Cys-Arg-NH2; cysteine pairing not given here) [BL-8040]” the colony formation (SK-N-BE(2) cells) was “reduces colony formation”, the colony formation (Shy-SY5Y cells) was “reduces colony formation” and the “BCL-2 mRNA (qPCR)” value [1] was “reduced”. For the same substance, the “CCND1 mRNA (qPCR)” value [1] was “reduced only in the Shy-SY5Y cells”, the “c-myc mRNA (qPCR)” value [1] was “reduced significantly” and the “miR-15a level (qPCR)” value [1] was “significant increase”. The “miR-16-1 level (qPCR)” value [1] was “not miR-16-1”, the “BCL-2 mRNA (qPCR)” value [2] was “reduced” and the “CCND1 mRNA (qPCR)” value [2] was “reduced only in the Shy-SY5Y cells”. The “c-myc mRNA (qPCR)” value [2] was “reduced significantly”, the “miR-15a level (qPCR)” value [2] was “significant increase” and the “miR-16-1 level (qPCR)” value [2] was “not miR-16-1”. The “BCL-2 protein (western blot)” value [3] was “reduction”, the “ERK phosphorylation (western blot)” value [3] was “decreased ERK phosphorylation” and the “cycD1 protein (western blot)” value [3] was “reduction”. For the same substance, the “reduction in tumor weight” value ([4]; 400 μg s.c. daily for 14 days from day 7, harvested day 21) was 3 fold, the “survival of animals, average” value ([4]; 400 μg s.c. daily for 35 days from day 3, controls 35 days) was 61 days and the “tumor growth (tumor volume, MRI)” value ([4]; 400 μg s.c. daily for 35 days from day 3, exponential growth after discontinuation) was “tumor growth attenuation”. For the same substance, the “affinity of binding to the CXCR4 receptor” value (CXCR4 receptor) was “high affinity” and the receptor occupancy (CXCR4 receptor) was “long receptor occupancy”.
